US20080031866A1, “METHOD FOR MODULATING THE PHARMACOKINETICS AND METABOLISM OF A THERAPEUTIC AGENT” (priority 2006, published 2008)

What was measured:
[1] = Intraduodenal dosing with and without β-glucuronidase, catheterized rat; type: in vivo; details: for Increase in AUC with β-glucuronidase: with vs no enzyme; for AUC / Cmax / concentration at 0 h / concentration at 0.25 h / concentration at 0.5 h / concentration at 1 h / concentration at 2 h / concentration at 3 h / concentration at 4 h / concentration at 5 h / concentration at 6 h / AUC average ± standard deviation 0 to 6 hours / Cmax average ± standard deviation: 10 mg/kg, rats N=6; for AUC: read-out: AUC average ± standard deviation 0 to 6 hours; for Cmax: read-out: Cmax average ± standard deviation; for concentration at 0 h / concentration at 0.25 h / concentration at 0.5 h / concentration at 1 h / concentration at 2 h / concentration at 3 h / concentration at 4 h / concentration at 5 h / concentration at 6 h: other: intraduodenal
Protocol: (§1) A catheterized rat model was used in which the agent alone or agent and β-glucuronidase enzyme was administered intraduodenally or intracolonically. The intraduodenal and intracolonic dosing was intended to prevent the potential for loss of enzymatic activity when orally dosing the β-glucuronidase (e.g. by degradation in the stomach). […]
(§2) For the oral gavage dosing, Compound 1 was prepared in neat PEG-400. For the intraduodenal and intracolonic dosing solutions, Compound 1 was added to neat Tween 80, the mixture was sonicated for thirty minutes at 45° C. until Compound 1 was completely dissolved and then deionized (DI) water was added to form a solution consisting of 20% Tween 80 and 80% DI water by weight.
(§3) For the oral enzyme solutions, β-glucuronidase was added to the final formulation at a concentration of 57,600 units/ml.
(§4) For the intraduodenal and intracolonic dosing, male Sprague Dawley rats weighing 300-400 g were purchased from Charles River Labs. All rat experiments were conducted under approved animal protocols. The rats were catheterized at Charles River Labs and had one or more of the following chronic catheters for dosing and sampling: jugular/carotid, duodenal, and colonic. Rats were limited to only one GI catheter and one vascular catheter. For IV dosing, rats were purchased with jugular and carotid catheters for dosing in the jugular catheter and blood sampling through the carotid catheter. For intraduodenal/intracolonic dosing, rats had one of the GI catheters for dosing and a carotid catheter for blood sampling.
(§5) The surgeries were done two weeks prior to start of testing. Rats were fed 4 hours post dose administration. All rats were dosed without anesthesia and sacrificed at the end of the study.
(§6) A quantitative method for determining the amount of (6,7-dimethoxy-2,4-dihydro-indeno[1,2-c]pyrazol-3-yl)-(3-fluoro-phenyl)-amine Compound 1 and its major metabolites, glucuronide A (Cpd 1-GluA) and glucuronide B (Cpd 1-GluB) (see Scheme A) in rat plasma was developed using phenacetin as an internal standard. [drawing 1]
(§7) The two glucuronide conjugates were prepared and purified to permit accurate quantification of the levels of intact parent Compound 1 versus Cpd 1-GluA and Cpd 1-GluB. Each standard curve for Compound 1, Cpd 1-GluA, and Cpd 1-GluB generated from rat plasma included ten concentration levels. […] The quantitative procedure for each sample included: sample preparation, HPLC separation and mass spectrometry detection.
(§8) The rat plasma was prepared using protein precipitation techniques. Reference standards and quality control samples in rat plasma for Compound 1 were transferred to a 96 deep-well plate. The precipitation solution contained 100 ng/ml of internal standard in acetonitrile. 300 μl of precipitation solution were added to 100 μl of each standard, quality control and plasma sample. Samples were vortexed for 10 mins, then centrifuged at 4500 RPM for 10 mins. 10 μl of each sample were injected for LC/MS/MS analysis.
(§9) The HPLC column chosen for the bioanalysis was purchased from Thermo Electron (Hypersil BetaBasic C18, 5 cm×2.1 mm). The eluting solvents were composed of Solvent A: 0.1% formic acid in H2O and Solvent B: 0.1% formic acid in acetonitrile. A step gradient was used and flow rate was 300 μl/min. The total run time was 3.2 mins. Solvent B was increased from 35% at 0 min to 75% at 2.1 mins and decreased back to 35% at 2.2 mins. The retention times for Compound 1, phenacetin, Cpd 1-GluA and Cpd 1-GluB were 1.1 min, 0.9 min, 1.3 min, and 1.6 min, respectively.
(§10) API3000 with a Turbo Ionspray interface from Applied Biosystems was used for the detection of Compound 1, the internal standard and major metabolites. Electrospray ionization was performed in the positive ion mode heated nebulizer with a temperature of 300° C. LC/MS/MS chromatograms were acquired in MRM (multiple reaction mode). […]

[2] = Intracolonic dosing with and without β-glucuronidase, catheterized rat; type: in vivo; details: male, Sprague Dawley, rat, plasma, 10 mg/kg; for Cmax: read-out: Cmax average ± standard deviation; for concentration at 0 h / concentration at 0.25 h / concentration at 0.5 h / concentration at 1 h / concentration at 2 h / concentration at 3 h / concentration at 4 h / concentration at 5 h / concentration at 6 h: other: intracolonic
Protocol: as §1, §2, §3, §4, §5, §6, §7, §8, §9, §10

[3] = male, Sprague Dawley, rat, plasma, Compound 1 10 mg/kg intraduodenal with β-glucuronidase
[4] = male, Sprague Dawley, rat, plasma, Compound 1 10 mg/kg intraduodenal without enzyme
[5] = Compound 1 10 mg/kg intraduodenal with β-glucuronidase
[6] = Compound 1 10 mg/kg intraduodenal without enzyme
[7] = rats N=6, Compound 1 10 mg/kg intracolonic with β-glucuronidase
[8] = rats N=6, Compound 1 10 mg/kg intracolonic without enzyme

## COc1cc2c(cc1OC)-c1n[nH]c(Nc3cccc(F)c3)c1C2 [Compound 1, (6,7-dimethoxy-2,4-dihydro-indeno[1,2-c]pyrazol-3-yl)-(3-fluoro-phenyl)-amine]
[1]; intraduodenal 10 mg/kg
  Increase in AUC with β-glucuronidase: 2.9 fold
[1]; intraduodenal
  Increase in AUC with β-glucuronidase: 294%
[1]; [3]
  AUC: 177 ± 55 ng·h/mL
  Cmax: 129 ± 41 ng/mL
  concentration at 0 h: 0 ng/mL
  concentration at 0.25 h: 129 ± 41.4 ng/mL
  concentration at 0.5 h: 107 ± 26.6 ng/mL
  concentration at 1 h: 75.6 ± 35 ng/mL
  concentration at 2 h: 21.2 ± 12.5 ng/mL
  concentration at 3 h: 12.9 ± 4.3 ng/mL
  concentration at 4 h: 9.5 ± 3.1 ng/mL
  concentration at 5 h: 3.7 ± 6.3 ng/mL
  concentration at 6 h: 1.7 ± 2.7 ng/mL
[1]; [4]
  AUC: 60 ± 18 ng·h/mL
  Cmax: 75 ± 30 ng/mL
  concentration at 0 h: 0 ng/mL
  concentration at 0.25 h: 75.2 ± 30.3 ng/mL
  concentration at 0.5 h: 55.1 ± 15.5 ng/mL
  concentration at 1 h: 18.7 ± 5.9 ng/mL
  concentration at 2 h: 3.2 ± 0.6 ng/mL
  concentration at 3 h: 1.5 ± 0.9 ng/mL
  concentration at 4 h: 1.6 ± 0.7 ng/mL
  concentration at 5 h: 0 ng/mL
  concentration at 6 h: 0 ng/mL
[1]; male, Sprague Dawley, rat, plasma, intraduodenal 10 mg/kg, unchanged with or without enzyme
  Tmax: 30 min
[1]; [5]
  AUC average ± standard deviation 0 to 6 hours: 177.4 ± 55.3 ng·h/mL
  Cmax average ± standard deviation: 129.4 ± 41.1 ng/mL
[1]; [6]
  AUC average ± standard deviation 0 to 6 hours: 60.3 ± 17.8 ng·h/mL
  Cmax average ± standard deviation: 76.0 ± 29.0 ng/mL
[2]; rats N=6, Compound 1 10 mg/kg intracolonic with β-glucuronidase, read-out: AUC average ± standard deviation 0 to 6 hours
  AUC: 9.5 ± 2.5 ng·h/mL
[2]; [7]
  Cmax: 4 ± 0.6 ng/mL
  concentration at 0 h: 0 ng/mL
  concentration at 0.25 h: 129 ± 41.4 ng/mL
  concentration at 0.5 h: 107 ± 26.6 ng/mL
  concentration at 1 h: 75.6 ± 35 ng/mL
  concentration at 2 h: 21.2 ± 12.5 ng/mL
  concentration at 3 h: 12.9 ± 4.3 ng/mL
  concentration at 4 h: 9.5 ± 3.1 ng/mL
  concentration at 5 h: 3.7 ± 6.3 ng/mL
  concentration at 6 h: 1.7 ± 2.7 ng/mL
[2]; rats N=6, Compound 1 10 mg/kg intracolonic without enzyme, read-out: AUC average ± standard deviation 0 to 6 hours
  AUC: 15.5 ± 24.9 ng·h/mL
[2]; [8]
  Cmax: 9.5 ± 17.9 ng/mL
  concentration at 0 h: 0 ng/mL
  concentration at 0.25 h: 6.4 ± 11.5 ng/mL
  concentration at 0.5 h: 8 ± 15.7 ng/mL
  concentration at 1 h: 8.7 ± 18.2 ng/mL
  concentration at 2 h: 2 ± 3.1 ng/mL
  concentration at 3 h: 1.1 ± 2.7 ng/mL
  concentration at 4 h: 0 ng/mL
  concentration at 5 h: 0 ng/mL
  concentration at 6 h: 0 ng/mL
[2]; with and without β-glucuronidase, read-out: AUC of parent after intracolonic administration
  AUC: < 16 ng·h/mL
